These results are taken from ChEMBL document CHEMBL1641484, “Efficient synthesis of trisaccharide saponins and their tumor cell killing effects through oncotic necrosis” (Bioorg Med Chem Lett, 2011).

The nature of assay [1]: Cytotoxicity against human U87 cells after 4 hrs by MTT assay. It is filed as functional, cell-based, U-87MG ATCC. Particulars: U-87 MG. On the technique in general: Formazan colour is commonly taken as a measure of viable cells.
Assay [2] has as its system MCF7. Put plainly: Cytotoxicity against human MCF7 cells after 4 hrs by MTT assay. The class given is functional, cell-based. The conditions noted are these: MCF7, 4 h.
Assay [3] relates to KB. Kind of assay: Cytotoxicity against human KB cells after 4 hrs by MTT assay. The class given is functional, cell-based.
The test system of assay [4] is K562. Kind of assay: Cytotoxicity against human K562 cells after 4 hrs by MTT assay. The class given is functional, cell-based. The conditions noted are these: K562, 4 h.
The subject of assay [5] is H9c2. Put plainly: Cytotoxicity against rat H9c2 cells after 4 hrs by MTT assay. It is filed as cell-based. The conditions noted are these: H9c2, 4 h.
The nature of assay [6]: Cytotoxicity against human HL-7702 cells after 4 hrs by MTT assay. The class given is cell-based. The conditions noted are these: L02, 4 h.
Assay [7] in a line: Cytotoxicity against human EVC304 cells after 4 hrs by MTT assay. It is filed as cell-based. Particulars: EVC304, 4 h.
Assay [8] relates to K562. Put plainly: Anticancer activity against human K562 cells assessed as membrane surface blebs at 5 uM after 30 to 60 mins by time-lapse microscopy. The class given is functional, cell-based.
In assay [9] the test system is MCF7. Put plainly: Anticancer activity against human MCF7 cells assessed as loss of plasma membrane integrity at 5 uM after 10 mins by LDH release assay. It is filed as functional, cell-based. In general terms: LDH leaks from cells whose membrane has failed.
Assay [10] concerns KB. Kind of assay: Anticancer activity against human KB cells assessed as loss of cell membrane integrity after 12 hrs by propidium iodide staining-based fluorescence microscopy. It is filed as functional.
For assay [11], the system named is K562. Kind of assay: Anticancer activity against human K562 cells assessed as loss of plasma membrane integrity at 5 uM after 10 mins by LDH release assay. The class given is functional, cell-based.
Assay [12] has as its system K562. Kind of assay: Anticancer activity against human K562 cells assessed as loss of plasma membrane integrity at 5 uM after 180 mins by LDH release assay. It is filed as functional, cell-based.
Assay [13] deals with MCF7. Kind of assay: Anticancer activity against human MCF7 cells assessed as loss of microtubules and actin microfilaments after 12 hrs by immunostaining. The class given is functional, cell-based.
Assay [14] has as its system K562. Put plainly: Anticancer activity against human K562 cells assessed as membrane surface blebs at 5 uM after 15 to 30 mins by time-lapse microscopy. It is filed as functional, cell-based.
The subject of assay [15] is MCF7. Put plainly: Anticancer activity against human MCF7 cells assessed as loss of plasma membrane integrity at 5 uM after 180 mins by LDH release assay. It is filed as functional, cell-based.
Assay [16] concerns K562. Put plainly: Anticancer activity against human K562 cells assessed as loss of cell membrane integrity after 12 hrs by propidium iodide staining-based fluorescence microscopy. The class given is functional.

Active and inactive are the calls of the source. The rule behind the calls is not given here.

As usually defined, the IC50 is the concentration needed to halve the response being measured. A lower IC50 goes with inhibition by little substance. On to `C=C(C)[C@@H]1CC[C@]2(C)CC[C@]3(C)[C@H](CC[C@@H]4[C@@]5(C)CC[C@H](O[C@@H]6O[C@H](CO)[C@H](O)[C@H](O[C@@H]7OC[C@@H](O)[C@H](O)[C@H]7O)[C@H]6O[C@@H]6O[C@@H](C)[C@H](O)[C@@H](O)[C@H]6O)C(C)(C)[C@@H]5CC[C@]43C)[C@@H]12`, for which the half-maximal inhibitory concentration (IC50) in assay [1], in assay [2], in assay [3] and in [4] was over 40 µM each time.

Regarding `C[C@@H]1CC[C@@]2(OC1)O[C@H]1C[C@H]3[C@@H]4CC=C5C[C@@H](O[C@@H]6O[C@H](CO)[C@H](O)[C@H](O[C@@H]7OC[C@@H](O)[C@H](O)[C@H]7O)[C@H]6O[C@@H]6O[C@@H](C)[C@H](O)[C@@H](O)[C@H]6O)CC[C@]5(C)[C@H]4CC[C@]3(C)[C@H]1[C@@H]2C` [INDIOSIDE E], the IC50 in [5] is over 20 µM; in assay [6], 4.81 µM; in assay [1], 2.48 µM; in assay [2] it was 1.82 µM; in [3], 1.71 µM; in assay [4], 3.74 µM. The compound further yielded an IC50 in assay [7] of 3.93 µM.

In the case of `CC(C)CCC[C@@H](C)[C@H]1CC[C@H]2[C@@H]3CC=C4C[C@@H](O[C@@H]5O[C@H](CO)[C@H](O)[C@H](O[C@@H]6OC[C@@H](O)[C@H](O)[C@H]6O)[C@H]5O[C@@H]5O[C@@H](C)[C@H](O)[C@@H](O)[C@H]5O)CC[C@]4(C)[C@H]3CC[C@]12C`, the IC50 was over 20 µM in assay [5]; over 20 µM in assay [6]; 16.5 µM in assay [1]; 9.48 µM in assay [2]; 16.3 µM in assay [3]; 11.3 µM in assay [4]. Moreover, the IC50 in [7] is over 20 µM.

For `C[C@@H]1O[C@@H](O[C@H]2[C@H](O[C@H]3CC[C@]4(C)[C@H]5CC[C@]6(C)C(=CC[C@@]7(C)CCC(C)(C)C[C@H]76)[C@]5(C)CC[C@H]4C3(C)C)O[C@H](CO)[C@H](O)[C@@H]2O[C@@H]2OC[C@@H](O)[C@H](O)[C@H]2O)[C@H](O)[C@H](O)[C@H]1O`, the IC50 in assay [1], in assay [2], in assay [3] and in assay [4] was over 40 µM throughout.

Regarding `C[C@@H]1CC[C@@]2(OC1)O[C@H]1C[C@H]3[C@@H]4CC[C@H]5C[C@@H](O[C@@H]6O[C@H](CO)[C@H](O)[C@H](O[C@@H]7OC[C@@H](O)[C@H](O)[C@H]7O)[C@H]6O[C@@H]6O[C@@H](C)[C@H](O)[C@@H](O)[C@H]6O)CC[C@]5(C)[C@H]4CC[C@]3(C)[C@H]1[C@@H]2C`, the result in [8], in [9], in assay [10], in [11], in [12] and in [13] was Active. Also, the outcome in assay [15] and in assay [16] was Active. Moreover, the IC50 is over 20 µM in [5]; 6.92 µM in assay [6]; 3.12 µM in assay [1]; 2.61 µM in assay [2]; 1.32 µM in [3]; 3.77 µM in assay [4]. This compound also registered an IC50 in [7] of 1.03 µM. Also, in [14], the outcome was inactive.

In the case of `CC[C@H](CC[C@@H](C)[C@H]1CC[C@H]2[C@@H]3CC=C4C[C@@H](O[C@@H]5O[C@H](CO)[C@H](O)[C@H](O[C@@H]6OC[C@@H](O)[C@H](O)[C@H]6O)[C@H]5O[C@@H]5O[C@@H](C)[C@H](O)[C@@H](O)[C@H]5O)CC[C@]4(C)[C@H]3CC[C@]12C)C(C)C`, the IC50 in [1], in assay [2], in assay [3] and in assay [4] was over 40 µM in each case.
